This note sets out measurements from patent publication US10568925B2, “Extracts of Curcuma amada and uses thereof” (DHARMA BIOMEDICAL, LLC, priority 2015, dated 2020).

Where two headings read alike, the source gives them in different places.

Series [1] deals with U-87MG human glioblastoma cell line. The series can be described thus: MTT cytotoxicity in U-87MG glioblastoma cells. The series is classed as cell-based. The following applies: 72 hours. As for the experimental part: Human glioblastoma cell line (U-87MG) was purchased from American Type Culture Collection, Manassas, Va. and the cells were grown in RPMI medium supplemented with 10% fetal bovine serum (FBS) and antibiotics in a humidified 5% CO2 incubator maintained at 37° C. The normal mouse embryonic hypothalamus cell line (mHypoE-N1) was purchased from CELLutions Biosystems, Inc, Burlington, Ontario, Canada and was grown in DMEM, supplemented with 10% FBS and antibiotics in the CO2 incubator.
Glioblastoma (U-87MG) cells were treated with increasing concentrations of CA, temozolomide, etoposide or their combination for 72 hours in 96-well plates. MTT [3-(4,5-Dimethyl thiazol-2-yl)-2,5-diphenyltetrazolium bromide] assay performed with the Cell Proliferation Kit I (Roche Biochemicals, IN) was used to analyze cytotoxicity of individual drugs/extracts and their combinations. The experiments were repeated four times with three replications for each treatment and the IC50, IC75 and IC90 values were calculated (Ramachandran et al. 2010; Ramachandran et al. 2012). The relative cytotoxicity of CA in normal mouse hypothalamus cell line (mHypoE-N1) was also analyzed to compare the toxicity and specificity of CA in normal and brain tumor cells.
Mean inhibitory concentrations (ICs) and standard deviation estimates were calculated using Microsoft Excel software using data from three separate experiments. The fraction of surviving cells at each concentration of drugs/combinations was used for the analysis of synergism/additiveness/antagonism between drugs/extracts by the CompuSyn software (ComboSyn, Inc., Paramus, N.J.).

The subject of series [2] is alveolar (SJRH30) rhabdomyosarcoma cell line. The series can be described thus: MTT cytotoxicity in alveolar rhabdomyosarcoma cells. Type of series: cell-based, human. The following applies: for IC50 / IC90: Homo sapiens. As for the experimental part: (§1) Both aRMS (SJRH30) and eRMS (RD) cell lines were purchased from American Type Culture Collection, Manassas, Va. SJRH30 and RD cells were grown in Rosewell Park Memorial Institute 1640 (RPMI 1640) and Dulbecco's Modified Eagle's medium (DMEM), respectively, supplemented with 10% FBS and antibiotics in a 5% CO2 incubator.
(§2) Rhabdomyosarcoma cells were treated with increasing concentrations of drugs and/or extracts for 72 hours in 96-well plates. MTT assay performed with the Cell Proliferation kit I (Roche Biochemicals, IN) was used to analyze cytotoxicity of individual drugs, extracts and their combinations (Ramachandran et al. 2012).
(§3) Mean inhibitory concentrations (ICs) and standard deviation estimates were calculated using Microsoft Excel software. The fraction of surviving cells at each concentration of drugs/combinations was used for the analysis of synergism/additiveness/antagonism between drugs/extracts by the CompuSyn software (ComboSyn, Inc., Paramus, N.J.). Synergism was evaluated by the Combination Index (CI) method of Chou and Talalay (1983) which is based on the median-effect principle. The CIs were calculated by the Chou-Talalay equations for multiple drug effects which take into account both potency (IC values) and shape (slope, m) of dose-effect curve (Ramachandran et al. 2010).

For series [3], the system named is SJRH30 cell line. The series can be described thus: RT-PCR gene expression, SJRH30. Type of series: cell-based, human. The settings on record: SJRH30, 72 h. As for the experimental part:
(§4) FIGS. 20A-20B: Gene expression analysis of apoptotic genes (p53, Bcl-2, Bax and Bak) by RT-PCR in eRMS RD (FIG. 20A) and aRMS SJRH30 (FIG. 20B) cells treated with VBL, CP, CA and their combinations. Total RNA was extracted from cells treated with drugs and their combinations for 72 h and RT-PCR assay performed with 5 μg of RNA using gene specific primers. The house keeping gene GAPDH is also amplified as control.
(§5) mRNA expression of apoptosis-associated genes (Bax, Bcl-2, Bak and p53) and inflammation-associated genes (Cox-2, NF-κB and STATS) were analyzed by reverse transcriptase-polymerase chain reaction (Ramachandran et al. 2012). The expression of a house keeping gene, Glyceraldehyde 3-phosphate dehydrogenase (GAPDH) was used as a control. The relative expression of genes was quantified using gel pictures by the UNSCAN-IT GEL′ software (Silk Scientific, Inc., Orem, Utah). Since the ratios of Bax/Bcl-2, Bak/Bcl-2 and Bax/Bak expression were very much associated with the fate of cells undergoing apoptosis, these estimates were calculated and plotted against drug concentrations (Ramachandran et al. 2012).

For series [4], the system named is embryonal (RD) rhabdomyosarcoma cell line. The series can be described thus: MTT cytotoxicity in embryonal rhabdomyosarcoma cells. Type of series: cell-based, human. The following applies: for IC50 / IC90: Homo sapiens, Rhabdomyosarcoma cell. The protocol:
as §1, §2, §3

Series [5] deals with RD cell line. The series can be described thus: RT-PCR gene expression, RD. Type of series: cell-based, human. The following applies: 72 h. As for the experimental part: as §4, §5
The test system of series [6] is U-87MG nude mice xenografts. As to the kind of experiment: Glioblastoma xenograft study. Type of series: in vivo. The settings on record: vs olive oil control; IR 50 mg/kg intraperitoneally, CA (50/mg) gavage; p<0.05. As for the experimental part:
FIG. 16: Inhibition of tumor growth rate in U-87MG xenografts treated with olive oil (control), irinotecan (IR), CA, and IR+CA in combination. Xenografts (n=15/group) were administered intraperitoneally with olive oil (control) or IR (50 mg/kg), whereas CA (50/mg) was given gavage (introduction directly to the stomach). Tumor measurements are recorded twice per week and mean±SD estimates of tumor growth rate are plotted against days after treatment (*p<0.05; **p<0.01, ***p<0.001 as compared to control).
FIG. 17: Kaplan-Meier survival curve analysis of glioblastoma (U-87MG) nude mice xenografts treated with olive oil control, IR, CA, and IR+CA. The difference between treatment groups are significant (*p<0.05).

Series [7] has as its system aRMS (SJRH30) nude mice xenografts. As to the kind of experiment: Rhabdomyosarcoma xenograft study. The series is classed as in vivo. The protocol:
Male athymic nude (nu/nu) mice of the NCrNUstrain (4 weeks old weighing 18-22 g) were purchased from Taconic Labs, German Town, N.Y. Tissue cultured SJRH30 aRMS cells (10^7 cells/site) in 0.1 ml of Hank's balanced salt solution were injected subcutaneously into the left and right flank of the nude mice with a 21-guage needle. When the tumors measured 0.5 cm^3, therapy was started with 20 mice in each group. Treatment groups included control (saline), 2 mg/kg VBL, 10 mg/kg CA and 2 mg/kg VBL+10 mg/kg CA. VBL was dissolved in saline and administered intraperitoneally on alternate days for a total of 10 injections starting on the first day of tumor measurement and treatment. CA was initially dissolved in ethanol and diluted in water so as to make 0.1% alcohol in it and given as drinking water for the entire duration of the study. Tumor size (length×width), body weight and survival data were collected twice a week. Tumor measurements were recorded using a vernier caliper and tumor volume and tumor growth rates were calculated according to the formula described earlier (Ramachandran et al. 2003; 2006). Tumor growth rate data was analyzed by one-way analysis of variance (ANOVA) with Dunnett's multiple comparison test. Survival data was analyzed with Kaplan Meier statistics using Graphpad Prism software and significant differences among treatment groups were calculated.

Usually IC75 stands for the concentration needed for an effect of 75%. The term IC90 denotes the concentration needed for an effect of 90%. By IC50 is commonly meant the concentration that gives 50% inhibition. For the compound `COc1cc(/C=C/C(=O)CC(=O)/C=C/c2ccc(O)c(OC)c2)ccc1O` [CUR, curcumin], the IC75 in series [1] and in series [1] (listed as curcumin) was 51.00 ± 7.07 µg/mL in each case. Also, the 90% effect concentration (IC90) is greater than 200 µg/mL in series [1] and greater than 200 µg/mL in series [1] (Homo sapiens, read-out: IC90). In addition, in series [1] (Homo sapiens), the IC50 was determined as 37.3 ± 4.04 µg/mL.
For the compound `O=P1(N(CCCl)CCCl)NCCCO1` (centres unmarked) [Cyclophosphamide (CP), Cyclophosphamide], in series [2] (200 μg/ml dose, aRMS cells), the cell death was 45%. The IC50 in series [2] (SJRH30, 72 h) was greater than 200 µg/mL; in series [4] (72 h), 172 ± 8.53 µg/mL. Moreover, the IC90 in series [2] (SJRH30, 72 h) is greater than 200 µg/mL; in series [4] (72 h) it was greater than 200 µg/mL. The IC75 is greater than 200 µg/mL in series [2] (SJRH30, 72 hours, MTT) and greater than 200 µg/mL in series [4] (RD, 72 hours, MTT). The “expression of Bcl-2” value in series [3] and in series [5] was “decrease” in each case. The “expression of p53, Bax and Bak” value in series [3] and in series [5] was “increase” in each case.
Regarding `COc1cc([C@@H]2c3cc4c(cc3[C@@H](O[C@@H]3O[C@@H]5CO[C@@H](C)O[C@H]5[C@H](O)[C@H]3O)[C@H]3COC(=O)[C@H]23)OCO4)cc(OC)c1O` [ETP, etoposide], the IC75 in series [1] turned out to be 127.50 ± 3.53 µg/mL. Moreover, the IC50 in series [1] (Homo sapiens) came to 6.5 ± 2.54 µg/mL. Also, in series [1] (Homo sapiens, read-out: IC90), the concentration for an effect of 90% (IC90) was greater than 200 µg/mL.
With `CCc1c2c(nc3ccc(OC(=O)N4CCC(N5CCCCC5)CC4)cc13)-c1cc3c(c(=O)n1C2)COC(=O)[C@]3(O)CC` [IR, irinotecan], in series [6], the tumor growth rate entry is “significantly inhibited”.
In the case of `Cn1nnc2c(C(N)=O)ncn2c1=O` [TMZ, temozolomide], the concentration for an effect of 75% (IC75) in series [1] was greater than 200 µg/mL. Moreover, in series [1] (Homo sapiens), the concentration for half-maximal inhibition (IC50) is 176 ± 10.5 µg/mL. Moreover, in series [1] (Homo sapiens, read-out: IC90), the 90% effect concentration (IC90) is greater than 200 µg/mL.
On to `CC[C@]1(O)C[C@@H]2CN(CCc3c([nH]c4ccccc34)[C@@](C(=O)OC)(c3cc4c(cc3OC)N(C)[C@H]3[C@@](O)(C(=O)OC)[C@H](OC(C)=O)[C@]5(CC)C=CCN6CC[C@]43[C@@H]65)C2)C1` [Vinblastine (VBL), Vinblastine], for which the IC50 in series [2] (SJRH30, 72 hours, MTT, read-out: IC50) came to 0.191 ± 0.01 µg/mL; in series [4] (RD, 72 hours, MTT, read-out: IC50), 0.01 ± 0.002 µg/mL. Besides, the IC90 is greater than 200 µg/mL in series [2] (SJRH30, 72 hours, MTT, read-out: IC90) and greater than 200 µg/mL in series [4] (RD, 72 hours, MTT, read-out: IC90). For the same compound, the 75% effect concentration (IC75) turned out to be 36.110 ± 2.970 µg/mL in series [2] (SJRH30, 72 hours, MTT) and 0.200 ± 0.010 µg/mL in series [4] (RD, 72 hours, MTT). Also, the “expression of Bcl-2” value in series [3] and in series [5] was “decrease” each time. The “expression of p53, Bax and Bak” value in series [3] and in series [5] was “increase” throughout. Further, in series [7] (mouse, in vivo), the “weight gain of xenografts / overall weight loss” value is recorded as “absence of any overall weight loss”. Also, the tumor growth rate result in series [7] (vs saline control, VBL 2 mg/kg intraperitoneally, CA 10 mg/kg in drinking water, p<0.001 by ANOVA) was “significantly inhibited”.
